Experiments:
[1] = tested on: alpha-glucosidase (Sigma); experiment: Test of alpha-glucosidase inhibitory effect; type: biochemical; conditions: 0.01 ml of 10 mg/ml sample; 50 U/ml alpha-glucosidase; 5 mM p-nitrophenyl-α-D-glucopyranoside, 37° C., 5 minutes; absorbance at 405 nm; untreated group = 100.0
Experimental: In this regard, the deoxynojirimycin was used as a positive control group. Each of the samples was measured for absorbance at 405 nm to determine initial absorbance, and 0.05 ml of 5 mM p-nitrophenyl-α-D-glucopyranoside as a substrate was added thereto and subjected to an enzymatic reaction at 37° C. for 5 minutes. Then, each sample was measured for absorbance at 405 nm, and the enzyme activity inhibition thereof was calculated according to Math Figure 1. Alpha-glucosidase activity inhibition (%)=100−(absorbance of each test sample/absorbance of control group×100) [Math Figure 1]

[2] = tested on: tyrosinase in human melanoma cell HM3KO cells; experiment: Effect on glycosylation of human melanoma cell tyrosinase (endoglycosidase H digestion, electrophoresis, immunodetection); type: cell-based; conditions: HM3KO cells cultured to confluency with 0.05% sample; about 72 kD = normally glycosylated, about 60 kD = glycosylation inhibited
Experimental: In order to examine the effect of icariside II on the glycosylation of tyrosinase in human melanoma cells, the following test was carried out. First, human melanoma cell HM3KO cells (Y. Funasaka, Department of dermatology, Kobe university school of medicine, 5-1 Kusunoki-cho 7-chrome, Chuo-ku, Kobe 650, Japan) were cultured in a minimum essential medium (MEM), containing 10% bovine fetal serum, under conditions of 37° C. and 5% CO2. The cultured cells were placed in 75 cm^2 flasks at a cell density of 3×10^5 cells and left to stand overnight, such that the cells adhered to the flask wall. From the next day, the medium was replaced with a fresh medium, containing each of icariin icariside II of Example 1 and deoxynojirimycin in an amount of 0.05%. Herein, the deoxynojirimycin was used as a positive control group. The medium was replaced with a fresh medium containing each of the samples at a 1-2-day interval, and the cells were cultured to confluency in the flasks. When the cells reached confluency, the cells were collected, added to lysis buffer (2% CHAPS in 50 mM Hepes and 200 mM NaCl, pH 7.5, protease inhibitors) and ultrasonically disrupted. The disrupted cell solution was centrifuged at 4° C. and 12000 rpm for 10 minutes, unbroken cells and melanin were separated and removed, and only the supernatant was collected. Endoglycosidase H (125 units) was added to the supernatant (protein amount: […]), and the supernatant was subjected to an enzymatic reaction at 37° C. for 1 hour. Then, proteins in the supernatant were separated according to size by electrophoresis. Among the proteins separated by electrophoresis, tyrosinase could be observed by an immune reaction with an antibody. […]

human skin = experiment: Test of whitening effect on human skin after UVB-induced blackness; type: in vivo; conditions: 1% solution in 1,3-butyleneglycol:ethanol=7:3 applied to UVB-irradiated upper arm of 12 healthy men, 10 weeks; ΔL* higher than about 1.5 = whitening effect
Source text: First, a perforated opaque tape having a diameter of 1.5 cm was attached to the upper arm of each of 12 healthy men. Then, UV rays (UVB) were irradiated to each of the subjects at a dose 1.5-2 times higher than the minimal erythema dose of each subject, thus inducing skin's blackness.
After the UV irradiation, each of a 1% solution of icariside (1,3-butyleneglycol:ethanol=7:3, as a vehicle), prepared in Example 1, a 1% solution of hydroquinone, a 1% solution of vehicle (negative control group), was applied to the skin of each subject. […] The skin color was measured with a colorimeter (Minolta, Japan) at a 1-week interval.
ΔL*=L* value at time point of completion of application−L* value at time point of start of application [Math Figure 2]

Row | Compound | Activity inhibition (%) [1] | size of tyrosinase after endoglycosidase H treatment (FIG. 1) [2] | Lightless (ΔL*) of skin color (human skin)
1 | COc1ccc(-c2oc3c(CC=C(C)C)c(O[C@@H]4O[C@H](CO)[C@@H](O)[C@H](O)[C@H]4O)cc(O)c3c(=O)c2O[C@@H]2O[C@@H](C)[C@H](O)[C@@H](O)[C@H]2O)cc1 [Icariin, icariin, reference compound] | 98.8% | about 72 kD | 
2 | COc1ccc(-c2oc3c(CC=C(C)C)c(O)cc(O)c3c(=O)c2O[C@@H]2O[C@H](C)[C@@H](O)[C@H](O)[C@@H]2O)cc1 [Example 4, icariside II] | 37.9% |  | 
3 | COc1ccc(-c2oc3c(CC=C(C)C)c(O)cc(O)c3c(=O)c2O[C@@H]2O[C@H](C)[C@@H](O)[C@H](O)[C@@H]2O)cc1 [Example 3, icariside II] | 37.5% |  | 
4 | COc1ccc(-c2oc3c(CC=C(C)C)c(O)cc(O)c3c(=O)c2O[C@@H]2O[C@H](C)[C@@H](O)[C@H](O)[C@@H]2O)cc1 [Example 1, icariside II] | 38.2% | about 60 kD | 1.97 ± 0.25
5 | Oc1ccc(O)cc1 [Hydroquinone, hydroquinone, reference compound] |  |  | 1.90 ± 0.11
6 | COc1ccc(-c2oc3c(CC=C(C)C)c(O)cc(O)c3c(=O)c2O[C@@H]2O[C@H](C)[C@@H](O)[C@H](O)[C@@H]2O)cc1 [Example 2, icariside II] | 38.8% |  | 
7 | COc1ccc(-c2oc3c(CC=C(C)C)c(O)cc(O)c3c(=O)c2O[C@@H]2O[C@H](C)[C@@H](O)[C@H](O)[C@@H]2O)cc1 [Example 5, icariside II] | 37.8% |  | 
8 | OC[C@H]1NC[C@H](O)[C@@H](O)[C@@H]1O [Deoxynojirimycin, deoxynojirimycin, reference compound] | 41.1% | about 60 kD | 
